Source: PubChem BioAssay (NCI)
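Assay format: 96-well plates, 48-hour exposure. TGI denotes the concentration required for complete inhibition of growth.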

Tests used:
Assay in all cases: NCI-60 cell line screen, 48 h
MDA-MB-231 breast = tested on: MDA-MB-231 breast
BT-549 breast = tested on: BT-549 breast
OVCAR-3 ovarian = tested on: OVCAR-3 ovarian
HOP-62 NSCLC = tested on: HOP-62 NSCLC
CAKI-1 renal = tested on: CAKI-1 renal
COLO 205 colon = tested on: COLO 205 colon
NCI-H23 lung = tested on: NCI-H23 lung
NCI-H460 lung = tested on: NCI-H460 lung
SK-MEL-2 melanoma = tested on: SK-MEL-2 melanoma
OVCAR-8 ovarian = tested on: OVCAR-8 ovarian
RXF 393 renal = tested on: RXF 393 renal
SF-539 CNS = tested on: SF-539 CNS
ACHN renal = tested on: ACHN renal
M14 melanoma = tested on: M14 melanoma
SNB-75 CNS = tested on: SNB-75 CNS
NCI-H226 lung = tested on: NCI-H226 lung
UACC-62 melanoma = tested on: UACC-62 melanoma
CCRF-CEM leukemia = tested on: CCRF-CEM leukemia
KM12 colon = tested on: KM12 colon
MDA-MB-435 = tested on: MDA-MB-435
TK-10 renal = tested on: TK-10 renal
HS 578T breast = tested on: HS 578T breast
MALME-3M melanoma = tested on: MALME-3M melanoma
U251 CNS = tested on: U251 CNS
786-0 renal = tested on: 786-0 renal
OVCAR-5 ovarian = tested on: OVCAR-5 ovarian
HCT-15 colon = tested on: HCT-15 colon
A498 renal = tested on: A498 renal
SN12C renal = tested on: SN12C renal
SF-295 CNS = tested on: SF-295 CNS
HL-60(TB) leukemia = tested on: HL-60(TB) leukemia
PC-3 prostate = tested on: PC-3 prostate
NCI-H522 lung = tested on: NCI-H522 lung
NCI/ADR-RES ovarian = tested on: NCI/ADR-RES ovarian
SK-MEL-5 melanoma = tested on: SK-MEL-5 melanoma
MDA-N = tested on: MDA-N
LOX IMVI melanoma = tested on: LOX IMVI melanoma
UACC-257 melanoma = tested on: UACC-257 melanoma
K-562 leukemia = tested on: K-562 leukemia
HCT-116 colon = tested on: HCT-116 colon
RPMI-8226 leukemia = tested on: RPMI-8226 leukemia
SK-OV-3 ovarian = tested on: SK-OV-3 ovarian
MOLT-4 leukemia = tested on: MOLT-4 leukemia
SF-268 CNS = tested on: SF-268 CNS
A549 NSCLC = tested on: A549 NSCLC
EKVX NSCLC = tested on: EKVX NSCLC
UO-31 renal = tested on: UO-31 renal
SW-620 colon = tested on: SW-620 colon
HOP-92 NSCLC = tested on: HOP-92 NSCLC
SNB-19 CNS = tested on: SNB-19 CNS
T-47D breast = tested on: T-47D breast
IGROV1 ovarian = tested on: IGROV1 ovarian
HT29 colon = tested on: HT29 colon
DU-145 prostate = tested on: DU-145 prostate
SK-MEL-28 melanoma = tested on: SK-MEL-28 melanoma
OVCAR-4 ovarian = tested on: OVCAR-4 ovarian
MCF7 breast = tested on: MCF7 breast
SR leukemia = tested on: SR leukemia

Measured: TGI

CN(C)c1ccc(/C=N/NC2=N/C(=C\c3ccco3)C(=O)N2)cc1
not listed: OVCAR-4 ovarian | MCF7 breast | SR leukemia
> 100 µM: all other assays above

C=C[C@H]1CN2CC[C@H]1C[C@@H]2[C@@H](O)c1ccnc2ccccc12
90 µM: RPMI-8226 leukemia
75.9 µM: IGROV1 ovarian
8.28 µM: HS 578T breast
not listed: CCRF-CEM leukemia | HOP-92 NSCLC | SR leukemia
> 100 µM: all other assays above

c1ccc2c(c1)SC1Sc3ccccc3[S+]21 (stereo unspecified)
50.9 µM: UO-31 renal
> 23.3 µM: K-562 leukemia
44.8 µM: CAKI-1 renal
> 78.3 µM: OVCAR-8 ovarian
> 76.7 µM: SW-620 colon
41.4 µM: SK-MEL-28 melanoma
45.6 µM: LOX IMVI melanoma
30.1 µM: COLO 205 colon
55.4 µM: TK-10 renal
49.6 µM: CCRF-CEM leukemia
69.9 µM: HOP-92 NSCLC
> 62.4 µM: 786-0 renal
20.4 µM: ACHN renal
> 70.7 µM: NCI-H460 lung
54.9 µM: SF-539 CNS
37.2 µM: BT-549 breast
33.6 µM: SN12C renal
47.8 µM: MOLT-4 leukemia
26.1 µM: NCI-H522 lung
> 76.3 µM: DU-145 prostate
46 µM: OVCAR-3 ovarian
50.5 µM: IGROV1 ovarian
49.9 µM: RPMI-8226 leukemia
33.8 µM: UACC-257 melanoma
96.9 µM: NCI-H226 lung
45.5 µM: U251 CNS
> 57 µM: HCT-116 colon
15.5 µM: MALME-3M melanoma
60.9 µM: MDA-MB-435 | HL-60(TB) leukemia
> 85.3 µM: HT29 colon
39.8 µM: SF-268 CNS
22.7 µM: SK-MEL-5 melanoma
> 73.1 µM: RXF 393 renal
> 79.5 µM: HCT-15 colon
53.6 µM: MDA-N
37.4 µM: NCI-H23 lung | UACC-62 melanoma
52.5 µM: EKVX NSCLC
87.7 µM: M14 melanoma
51 µM: NCI/ADR-RES ovarian
80.3 µM: MDA-MB-231 breast
> 69.2 µM: MCF7 breast
31.1 µM: KM12 colon
not listed: SR leukemia
> 100 µM: all other assays above

COc1nc2c(c(=O)n1C)N[C@@H]1[C@@H](O)[C@H](O)CO[C@@H]1N2
not listed: MDA-MB-231 breast | NCI-H23 lung | ACHN renal | HOP-92 NSCLC
> 100 µM: all other assays above
